From US20080125452A1, “Indolopyridines,Benzofuranopyridines and Benzothienopyridines” (ALTANA PHARMA AG, priority 2005, published 2008)

Legend:
[1] = system: RKO colon adenocarcinoma cells (RKOp27 induced); experiment: Alamar Blue cell viability assay on RKOp27 cells arrested by Ponasterone A induced p27Kip1 expression (cell cycle specific mode of action); assay type: cell-based; conditions: Homo sapiens, cells arrested by ectopic p27Kip1 induced with 10 μM Ponasterone A, 72 hours incubation, read-out: IC50 RKO p27 induced
Method: To determine the cell cycle specific mode of action, subclones of RKO colon adenocarcinoma cells (RKOp27 as described by Schmidt et al. in Oncogene 19, 2423-2429; 2000) are seeded into 96 well flat bottom plates at a density of 16000 cells per well in a volume of 50 μl per well in DMEM growth medium with 10% FCS containing 10 μM Ponasterone A. 24 hours after seeding the 50 μl each of the compound dilutions in DMEM medium are added into each well of the 96-well plate. Each compound dilution is tested as quadruplicates. Wells containing untreated control cells are filled with 50 μl DMEM medium containing 1% DMSO. The cells are then incubated with the substances for 72 hours at 37° C. in a humidified atmosphere containing 5% carbon dioxide. To determine the viability of the cells, 10 μl of an Alamar Blue solution (Biosource) are added and the fluorescence is measured at an extinction of 544 nm and an emission of 590 nm. For the calculation of the cell viability the emission value from untreated cells is set as 100% viability and the emission rates of treated cells are set in relation to the values of untreated cells. Viabilities are expressed as % values. Viability is compared of proliferating cells grown in the absence of the inducer Ponasterone A, versus viability of cells arrested by the expression of ectopic p27Kip1 induced by Ponasterone A.
Representative IC50 values for anti-proliferation/cytotoxicity determined in the aforementioned assays follow from the following table A, in which the numbers of the compound correspond to the numbers of the examples.

Row | Compound | IC50 [1] | melting point
1 | COc1cc(OC)cc([C@@H]2c3[nH]c4cccc(C)c4c3C[C@H]3C(=O)N(C)C(=S)N23)c1 (racemic) [Compound 7, (3aSR,10RS)-10-(3,5-Dimethoxy-phenyl)-2,5-dimethyl-1-thioxo-1,2,3a,4,9,10-hexahydro-2,9,10a-triaza-cyclopenta[b]fluoren-3-one] | > 100 µM | 279 to 291 °C
2 | COc1cc(OC)cc([C@@H]2c3[nH]c4cc(C)ccc4c3C[C@H]3C(=O)N(C)C(=S)N23)c1 (racemic) [Compound 8, (3aSR,10RS)-10-(3,5-Dimethoxy-phenyl)-2,7-dimethyl-1-thioxo-1,2,3a,4,9,10-hexahydro-2,9,10a-triaza-cyclopenta[b]fluoren-3-one] | > 100 µM | 216 to 218 °C
3 | Cc1cc(C)cc([C@@H]2c3[nH]c4ccccc4c3C[C@H]3C(=O)N(C)C(=S)N23)c1 [Compound 5, (3aS,10R)-10-(3,5-Dimethyl-phenyl)-2-methyl-1-thioxo-1,2,3a,4,9,10-hexahydro-2,9,10a-triaza-cyclopenta[b]fluoren-3-one] | > 100 µM | 252 to 257 °C
4 | COc1cc(OC)cc([C@@H]2c3sc4ccccc4c3C[C@H]3C(=O)N(C)C(=S)N23)c1 (racemic) [Compound 2, (3aSR,10RS)-10-(3,5-Dimethoxy-phenyl)-2-methyl-1-thioxo-1,2,4,10-tetrahydro-3aH-9-thia-2,10a-diaza-cyclopenta[b]fluoren-3-one] | > 85 µM | 247 to 249 °C
5 | COc1cc(OC)cc([C@@H]2c3[nH]c4ccccc4c3C[C@H]3C(=O)N(C)C(=S)N23)c1 [Compound 1, (3aS,10R)-10-(3,5-Dimethoxy-phenyl)-2-methyl-1-thioxo-1,2,3a,4,9,10-hexahydro-2,9,10a-triaza-cyclopenta[b]fluoren-3-one] | > 100 µM | –
6 | CN1C(=O)[C@@H]2Cc3c([nH]c4ccccc34)[C@@H](c3cc(F)cc(F)c3)N2C1=S [Compound 4, (3aS,10R)-10-(3,5-Difluoro-phenyl)-2-methyl-1-thioxo-1,2,3a,4,9,10-hexahydro-2,9,10a-triaza-cyclopenta[b]fluoren-3-one] | > 100 µM | 308 to 310 °C
7 | COc1cc(OC)cc([C@@H]2c3[nH]c4cc(F)ccc4c3C[C@H]3C(=O)N(C)C(=S)N23)c1 (racemic) [Compound 6, (3aSR,10RS)-10-(3,5-Dimethoxy-phenyl)-7-fluoro-2-methyl-1-thioxo-1,2,3a,4,9,10-hexahydro-2,9,10a-triaza-cyclopenta[b]fluoren-3-one] | > 100 µM | 199 to 202 °C
8 | CN1C(=O)[C@@H]2Cc3c([nH]c4ccccc34)[C@@H](c3cc(Cl)cc(Cl)c3)N2C1=S [Compound 3, (3aS,10R)-10-(3,5-Dichloro-phenyl)-2-methyl-1-thioxo-1,2,3a,4,9,10-hexahydro-2,9,10a-triaza-cyclopenta[b]fluoren-3-one] | > 100 µM | 277 °C
